{
  "source": "patent US20210317111A1",
  "about": "“NOVEL MEDICAMENT FOR TREATING INFLAMMATORY BOWEL DISEASE” (OTSUKA PHARMACEUTICAL CO., LTD., priority 2018, published 2021)",
  "key": {"TNBS-induced enteritis": {"system": "TNBS-induced enteritis", "test": "TNBS-induced enteritis model", "format": "in vivo, rat", "method": "An enteritis animal model induced with 2,4,6-trinitrobenzenesulfonic acid (TNBS) is widely used as Crohn's disease model since the inflammatory finding is pathologically similar to that of human Crohn's disease. In addition, the enteritis model was used in the non-clinical study of mesalazine that is a medicament for treating Crohn's disease. Thus, this enteritis model was used as Crohn's disease model for evaluating the present compound.\nRats were made to be fasted for 24 or 48 hours, and the body weight were measured. The rats were laparotomized under isoflurane anesthesia, and 50% ethanol (0.25 mL) containing 60 mg/mL 2,4,6-trinitrobenzenesulfonic acid (TNBS) was injected into the large intestine from the cecum side toward the anal side to induce the injury. Each group composed of 12 rats was set, and vehicle, the present compound, or salazosulfapyridine (SASP) which is an already-existing drug for treating inflammatory bowel disease were administered for 7 days from the first day after the injection of TNBS. On the 8th day, each rat was laparotomized under anesthesia and killed by exsanguination. The large intestine was removed from the anus to the cecum, the large intestine was longitudinally incised, and the incised large intestine was washed with a cold saline. The lesion area of the large intestine was photographed with a digital camera. The area of the lesion area in the photograph of the large intestine was measured using image analyzing program.\nEach compound was orally administered at a dose of 100 mg/kg twice a day from one day after inducing enteritis with TNBS. Each area of the lesion area on the 8th day was compared."}, "TNF-α production": {"system": "TNF-α production", "test": "inhibition of LPS-induced TNF-α production in human peripheral blood (ELISA)", "format": "cell-based", "details": "24 hours", "method": "The LPS solution which was adjusted to 2 μg/mL with RPMI 1640 medium was added to 48-well plate in the amount of 250 μL/well. The each diluted solution of each test compound and the diluted solution of the solvent control were added to 3 wells for each concentration in the amount of 50 μL/well, 4-fold diluted solution of human peripheral blood was added to each well (200 μL/well), and the wells were incubated at 37° C. in 5% CO2 for 24 hours. As LPS (−) control, RPMI 1640 medium without added LPS was prepared in the same manner. The final concentrations of each test sample were adjusted to 0, 1, 3, 10, 30, and 100 μM, and the final concentration of prednisolone was adjusted to 0.3 μM. 24 hours later from the incubation, each supernatant was collected and stored at −80° C. until the measurement of the TNF-α concentration.\nThe TNF-α concentration was measured by ELISA with Human TNF-alpha Quantikine ELISA Kit (R & D Systems). Each sample was unfrozen at room temperature, and diluted with Calibrator Diluent RD6-35 (1×) of the kit by 10-fold. The 10-fold diluted supernatant and the TNF-α standard solution were added on TNF-α microplate, and reacted according to the operating manual of the kit. After the coloring, the absorbance at wave length of 450 nm was measured with a microplate reader (Multiskan FC; Thermo Fisher […]), and the calibration curve was prepared with an analysis software (Skanit Software 3.1.0.4 RE for Multiskan FC (ja)) to read the TNF-α concentration of each sample. Calibration curve used a 4-parameter logistic curve.\nThe inhibition rates were presented as the mean±standard deviation using Microsoft Excel 2010. For each blood donor, the TNF-α production rate under each compound concentration was calculated with the TNF-α concentration in the supernatant of the solvent group as 100%.\nThe results are averages of the measurements obtained from the human peripheral blood of three volunteers."}, "Bacteroides spp": {"system": "Bacteroides spp", "test": "antibacterial activity against intestinal bacteria (MIC)", "format": "cell-based", "method": "(§1) The antibacterial activity of the present compound was examined against Bacteroides spp and Streptococcus spp, which are enterobacteria.\n(§2) The antibacterial activity (minimum inhibitory concentration (MIC)) was assayed by agar plate dilution method or broth microdilution method, which is based on Clinical and laboratory standards institute (CLSI). Specifically, the experiment was performed as follows. The compound of the present invention or the control substance was prepared by 2-fold serial dilution, respectively, and test strains were inoculated on the medium suitable for each test strain. After the inoculation followed by incubation at 37° C. under aerobic or anaerobic conditions, the minimum concentration at which colony formation was not observed in agar plate dilution method, or the minimum concentration without turbidity of the culture medium (the bacterial growth was not observed) in broth microdilution method was determined as MIC."}, "Streptococcus spp": {"system": "Streptococcus spp", "test": "antibacterial activity against intestinal bacteria (MIC)", "format": "cell-based", "method": "as §1, §2"}, "DSS-induced colitis": {"system": "DSS-induced colitis", "test": "DSS-induced colitis model, stool scores", "format": "in vivo, rat", "details": "for deaths: 8 animals per group", "source_text": "A colitis model induced by dextran sulfate sodium (DSS) is widely used as an experimental ulcerative colitis model having similarities of human ulcerative colitis regarding suppression of weight gain, colitis symptoms such as bloody stools and diarrhea, and injury formation in the large intestine. The effect of the present compound on the ulcerative colitis model was examined, and it was compared with salazosulfapyridine (SASP) clinically used as a therapeutic agent for ulcerative colitis.\nSymptoms of colitis were induced by allowing rats to freely drink 3% dextran sulfate sodium (DSS) solution for 10 days. […] For the observation of stool symptoms, the degree of stool condition was scored as the score of stool firmness (Stool Consistency Score: 0, 1, 2, 3) and blood stool (Bloody Stool Score: 0, 1, 2, 3). The total of Stool Consistency Score and Bloody Stool Score was taken as the Total Stool Score. Each group was composed of 8 animals. Salazosulfapyridine (SASP), which is an already-existing drug for treating inflammatory bowel disease, the present compound or the vehicle were administrated for 10 days from the start date of 3% DSS freely drinking."}, "[1]": {"details": "11th day, present compound 1, 3, 10 mg/kg (P<0.01) or SASP 100 mg/kg (P<0.05) orally twice a day, Dunnett's test"}, "[2]": {"details": "present compound groups, orally twice a day"}},
  "note": "pIC50: −log10 of the molar value.",
  "data": [
    {"smiles": "Cc1c(-c2cnc(N)c(C#N)c2)c(F)cc2c(=O)c(C(=O)O)cn(C3CC3)c12", "note": "[the present compound, 7-(6-amino-5-cyanopyridin-3-yl)-1-cyclopropyl-6-fluoro-1,4-dihydro-8-methyl-4-oxo-3-quinoline-carboxylic acid]", "values": [
      {"measurement": "area of the lesion area of the large intestine", "setting": "TNBS-induced enteritis; 100 mg/kg orally twice a day for 7 days, 8th day, vs vehicle control, P<0.01 t-test", "value": "significantly inhibited the area of lesion"},
      {"measurement": "number of death during the treatment", "setting": "TNBS-induced enteritis; 100 mg/kg orally twice a day, 12 rats per group", "value": "decreased the number of death"},
      {"measurement": "inhibitory effect on TNF-α production at 100 μM", "setting": "TNF-α production; 100 μM, human peripheral blood", "value": "completely inhibited"},
      {"measurement": "inhibitory activity for TNF-α production over concentration range", "setting": "TNF-α production; 1, 3, 10, 30, 100 μM, human peripheral blood", "value": "dose-dependent manner"},
      {"measurement": "pIC50", "setting": "TNF-α production; human peripheral blood of three volunteers", "value": 5.20},
      {"measurement": "antibacterial activity", "setting": "Bacteroides spp", "value": "strong antibacterial activities"},
      {"measurement": "antibacterial activity", "setting": "Streptococcus spp", "value": "strong antibacterial activities"},
      {"measurement": "deaths", "setting": "DSS-induced colitis; 1 mg/kg orally twice a day", "value": "One"},
      {"measurement": "deaths", "setting": "DSS-induced colitis; 3 mg/kg orally twice a day", "value": "no death"},
      {"measurement": "effect on blood stool score at 10 mg/kg", "setting": "DSS-induced colitis; 10 mg/kg orally twice a day", "value": "remarkable deterioration suppression effect"},
      {"measurement": "deaths", "setting": "DSS-induced colitis; 10 mg/kg orally twice a day", "value": "no death"},
      {"measurement": "bloody stool score vs vehicle control", "setting": "DSS-induced colitis; 11th day, present compound 1 mg/kg (P<0.05), 3, 10 mg/kg (P<0.01) or SASP 100 mg/kg orally twice a day, Dunnett's test", "value": "Significant differences"},
      {"measurement": "stool firmness (Stool Consistency Score) vs vehicle control", "setting": "DSS-induced colitis; [1]", "value": "Significant differences"},
      {"measurement": "total stool score vs vehicle control", "setting": "DSS-induced colitis; [1]", "value": "Significant differences"},
      {"measurement": "day from which deterioration suppression effect on blood stool score was observed", "setting": "DSS-induced colitis; [2]", "value": "from the 6th day"},
      {"measurement": "day from which deterioration suppression effect on stool firmness score was observed", "setting": "DSS-induced colitis; [2]", "value": "from the 9th day"}
    ]}
  ]
}
